# Test results as given in patent US9113629B2, “4-amino-6-(4-substituted-phenyl)-picolinates and 6-amino-2-(4-substituted-phenyl)-pyrimidine-4-carboxylates and their use as herbicides” (DOW AGROSCIENCES LLC, priority 2013, dated 2015).
# Like-named read-outs stand apart in the source and are kept apart here.
# Legend:
# [1] = system: Key Broadleaf Weed and Crop Species; assay: Post-emergent Test II herbicidal activity (Table 5); assay type: in vivo; conditions: post-emergence, 336 h, post-emergent, 14 days after application; for pest or weed control at 70 g/ha: 70 g ai/ha; for pest or weed control at 140 g/ha: 140 g ai/ha
# Procedure, shortened: (§1)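 Scoring: visual, 0–100% injury at 14 d versus untreated. Treatment: overhead track spray, 187 L/ha, onto plants at the first–second true leaf stage. Growth: greenhouse, ~15 h light, 23–29 °C day, 22–28 °C night.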
# [2] = system: Key Grass and Sedge Weeds as well as Grass Crops; assay: Post-emergent Test II herbicidal activity (Table 6); assay type: in vivo; conditions: post-emergence, 336 h; for pest or weed control at 70 g/ha: application rate 70 g ai/ha; for pest or weed control at 140 g/ha: application rate 140 g ai/ha
# Procedure, shortened: as §1
# [3] = ABUTH: velvetleaf (Abutilon theophrasti), read-out: Visual Growth Reduction (%) 14 Days After Application ABUTH
# [4] = AMARE: redroot pigweed (Amaranthus retroflexus), read-out: Visual Growth Reduction (%) 14 Days After Application AMARE
# [5] = BRSNN: oilseed-rape, canola (Brassica napus), read-out: Visual Growth Reduction (%) 14 Days After Application BRSNN
# [6] = CHEAL: lambsquarters (Chenopodium album), read-out: Visual Growth Reduction (%) 14 Days After Application CHEAL
# [7] = EPHHL: wild poinsettia (Euphorbia heterophylla), read-out: Visual Growth Reduction (%) 14 Days After Application EPHHL
# [8] = HELAN: sunflower (Helianthus annuus), read-out: Visual Growth Reduction (%) 14 Days After Application HELAN
# [9] = VIOTR: wild pansy (Viola tricolor), read-out: Visual Growth Reduction (%) 14 Days After Application VIOTR
# [10] = Triticum aestivum, TRZSS (wheat), read-out: Visual Growth Reduction (%) 14 Days After Application, TRZSS
# [11] = CYPES: yellow nutsedge (Cyperus esculentus), read-out: Visual Growth Reduction (%) 14 Days After Application, CYPES
# [12] = DIGSA: crabgrass (Digitaria sanguinalis), read-out: Visual Growth Reduction (%) 14 Days After Application, DIGSA
# [13] = ECHCG: barnyardgrass (Echinochloa crus-galli), read-out: Visual Growth Reduction (%) 14 Days After Application, ECHCG
# [14] = ORYSA: rice (Oryza sativa), read-out: Visual Growth Reduction (%) 14 Days After Application, ORYSA
# [15] = SETFA: giant foxtail (Setaria faberi), read-out: Visual Growth Reduction (%) 14 Days After Application, SETFA
# [16] = SORVU: grain sorghum (Sorghum vulgare), read-out: Visual Growth Reduction (%) 14 Days After Application, SORVU
# [17] = ZEAMX: maize, corn (Zea mays), read-out: Visual Growth Reduction (%) 14 Days After Application, ZEAMX
structure (smiles),measurement,setting,value
"COC(=O)c1nc(-c2ccc(I)cc2)c(C)c(N)c1Cl [Compound 136, methyl 4-amino-3-chloro-6-(4-iodophenyl)-5-methylpicolinate]",pest or weed control at 70 g/ha,[1]; [3],95 to 100%
same,pest or weed control at 140 g/ha,[1]; [3],95 to 100%
same,pest or weed control at 70 g/ha,[1]; [4],85 to 94%
same,pest or weed control at 140 g/ha,[1]; [4],85 to 94%
same,pest or weed control at 70 g/ha,[1]; [5],85 to 94%
same,pest or weed control at 140 g/ha,[1]; [5],85 to 94%
same,pest or weed control at 70 g/ha,[1]; [6],95 to 100%
same,pest or weed control at 140 g/ha,[1]; [6],95 to 100%
same,pest or weed control at 70 g/ha,[1]; [7],0 to 29%
same,pest or weed control at 140 g/ha,[1]; [7],0 to 29%
same,pest or weed control at 70 g/ha,[1]; [8],95 to 100%
same,pest or weed control at 140 g/ha,[1]; [8],95 to 100%
same,pest or weed control at 70 g/ha,[1]; [9],0 to 29%
same,pest or weed control at 140 g/ha,[1]; [9],0 to 29%
same,pest or weed control at 70 g/ha,[2]; [10],45 to 59%
same,pest or weed control at 140 g/ha,[2]; [10],45 to 59%
same,pest or weed control at 70 g/ha,[2]; [11],95 to 100%
same,pest or weed control at 140 g/ha,[2]; [11],95 to 100%
same,pest or weed control at 70 g/ha,[2]; [12],60 to 74%
same,pest or weed control at 140 g/ha,[2]; [12],60 to 74%
same,pest or weed control at 70 g/ha,[2]; [13],0 to 29%
same,pest or weed control at 140 g/ha,[2]; [13],0 to 29%
same,pest or weed control at 70 g/ha,[2]; [14],0 to 29%
same,pest or weed control at 140 g/ha,[2]; [14],0 to 29%
same,pest or weed control at 70 g/ha,[2]; [15],30 to 44%
same,pest or weed control at 140 g/ha,[2]; [15],45 to 59%
same,pest or weed control at 70 g/ha,[2]; [16],60 to 74%
same,pest or weed control at 140 g/ha,[2]; [16],60 to 74%
same,pest or weed control at 70 g/ha,[2]; [17],60 to 74%
same,pest or weed control at 140 g/ha,[2]; [17],75 to 84%
